Results taken from patent US10208040B2, “Fused imidazo-piperidine JAK inhibitors” (THERAVANCE BIOPHARMA R&D IP, LLC, priority 2017, dated 2019).
Like-named read-outs stand apart in the source and are kept apart here.

How the values were obtained:
[1] = test system: alternaria-induced BALF eosinophils; assay: Murine model of Alternaria alternata-induced eosinophilic inflammation of the lung; format: in vivo; conditions: mouse, oropharyngeal aspiration, 48 h after alternaria challenge, maximum statistically significant percent inhibition
Method: Airway eosinophilia is a hallmark of human asthma. Alternaria alternata is a fungal aeroallergen that can exacerbate asthma in humans and induces eosinophilic inflammation in the lungs of mice (Havaux et al. Clin Exp Immunol. 2005 February; 139(2):179-88).
Seven- to nine-week old male C57 mice from Taconic were used in the study. On the day of study, animals were lightly anesthetized with isoflurane and administered either vehicle or test compound (0.03-1.0 mg/mL, 50 μL total volume over several breaths) via oropharyngeal aspiration. Animals were placed in lateral recumbency post dose and monitored for full recovery from anesthesia before being returned to their home cage. One hour later, animals were once again briefly anesthetized and challenged with either vehicle or alternaria extract (200 ug total extract delivered, 50 μL total volume) via oropharyngeal aspiration before being monitored for recovery from anesthesia and returned to their home cage. Forty-eight hours after alternaria administration, bronchoalveolar lavage fluid (BALF) was collected and eosinophils were counted in the BALF using the Advia 120 Hematology System (Siemens).
Activity in the model is evidenced by a decrease in the level of eosinophils present in the BALF of treated animals at forty-eight hours compared to the vehicle treated, alternaria challenged control animals. Data are expressed as percent inhibition of the vehicle treated, alternaria challenged BALF eosinophils response. To calculate percent inhibition, the number of BALF eosinophils for each condition is converted to percent of the average vehicle treated, alternaria challenged BALF eosinophils and subtracted from one-hundred percent.

human eosinophils = assay: IL-5 mediated eosinophil survival assay; format: cell-based; conditions: for IC50: Homo sapiens, Eosinophil, read-out: pIC50 IL-5 mediated eosinophil survival (converted)
Method: The potency of the test compound for IL-5 mediated eosinophil survival was measured in human eosinophils isolated from human whole blood (AllCells). Because IL-5 signals through JAK, this assay provides a measure of JAK cellular potency.
Human eosinophils were isolated from fresh human whole blood (AllCells) of healthy donors. Blood was mixed with 4.5% Dextran (Sigma-Aldrich) in a 0.9% sodium chloride solution (Sigma-Aldrich). Red blood cells were left to sediment for 35 minutes. The leukocyte rich upper layer was removed and layered over Ficoll-Paque (GE Healthcare) and centrifuged at 600 g for 30 minutes. The plasma and mononuclear cell layers were removed before the granulocyte layer was lysed with water to remove any contaminating red blood cells. Eosinophils were further purified using a human eosinophil isolation kit (Miltenyi Biotec). A fraction of the purified eosinophils were incubated with anti-CD16 FITC (Miltenyi Biotec) for 10 minutes at 4° C. in the dark. Purity was analyzed using a LSRII flow cytometer (BD Biosciences).
Cells were cultured in a 37° C., 5% CO2 humidified incubator in RPMI 1640 (Life Technologies) supplemented with 10% Heat Inactivated Fetal Bovine Serum (FBS, Life Technologies), 2 mM Glutamax (Life Technologies), 25 mM HEPES (Life Technologies) and 1× Pen/Strep (Life Technologies). Cells were seeded at 10,000 cells/well in media (50 μL). The plate was centrifuged at 300 g for 5 minutes and supernatants removed. Compounds were serially diluted in DMSO and then diluted another 500-fold to a 2× final assay concentration in media. […]
After cytokine stimulation, cells were centrifuged at 300 g for 5 min and washed twice with cold DPBS (Life Technologies). To access viability and apoptosis, cells were incubated with Propidium Iodide (Thermo Fisher Scientific) and APC Annexin V (BD Biosciences) and analyzed using a LSRII flow cytometer (BD Biosciences). IC50 values were determined from analysis of the viability curves of percent cell viability vs compound concentration. Data are expressed as pIC50 (negative decadic logarithm IC50) values.

| SMILES | Percent Inhibition of Alternaria-induced BALF Eosinophils [1] | inhibition of IL-5 mediated human eosinophil survival (in words) (human eosinophils) | IC50 (human eosinophils; in the presence of 10 pg/ml IL-5) [nM] | IC50 (human eosinophils; in the presence of 1 ng/ml IL-5) [nM] |
| --- | --- | --- | --- | --- |
| CCc1cc(O)c(F)cc1-c1ccc2c(-c3nc4c([nH]3)CN(C(C)C)[C@H](C(=O)N3CC[C@H](N(C)C)C3)C4)n[nH]c2c1 [Example 3] | 93 | – | – | – |
| CCCN1Cc2[nH]c(-c3n[nH]c4cc(-c5cc(F)c(O)cc5CC)ccc34)nc2C[C@H]1C(=O)N1C[C@@H]2C[C@H]1CN2C [Example 1, ((S)-2-(6-(2-ethyl-5-fluoro-4-hydroxyphenyl)-1H-indazol-3-yl)-5-propyl-4,5,6,7-tetrahydro-3H-imidazo[4,5-c]pyridin-6-yl)((1S,4S)-5-methyl-2,5-diazabicyclo-[2.2.1]heptan-2-yl)methanone] | 90 | potently inhibit | 50.1 | 2000 |
